Test results published in ChEMBL document CHEMBL1201862, “PubChem BioAssay data set” (2004).
The source made the active and inactive calls.

Experiments:
Protein Tat = Protein Tat (Human immunodeficiency virus type 1 group M subtype B (isolate HXB2)(HIV-1), UniProt P04608); type: functional;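 further: tat binding to TAR RNA read out by fluorescence polarization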
[1] = biological target: Tyrosine-protein phosphatase non-receptor type 5 (Homo sapiens, UniProt P54829); assay: STEP phosphatase inhibitors, confirmation, biochemical, fluorescence intensity, uHTS hits (AID 602372); type: functional; conditions: read-out: IC50_Mean
Tyrosine-protein phosphatase non-receptor type 5, sequence (P54829 whole entry, the tested form may be a part): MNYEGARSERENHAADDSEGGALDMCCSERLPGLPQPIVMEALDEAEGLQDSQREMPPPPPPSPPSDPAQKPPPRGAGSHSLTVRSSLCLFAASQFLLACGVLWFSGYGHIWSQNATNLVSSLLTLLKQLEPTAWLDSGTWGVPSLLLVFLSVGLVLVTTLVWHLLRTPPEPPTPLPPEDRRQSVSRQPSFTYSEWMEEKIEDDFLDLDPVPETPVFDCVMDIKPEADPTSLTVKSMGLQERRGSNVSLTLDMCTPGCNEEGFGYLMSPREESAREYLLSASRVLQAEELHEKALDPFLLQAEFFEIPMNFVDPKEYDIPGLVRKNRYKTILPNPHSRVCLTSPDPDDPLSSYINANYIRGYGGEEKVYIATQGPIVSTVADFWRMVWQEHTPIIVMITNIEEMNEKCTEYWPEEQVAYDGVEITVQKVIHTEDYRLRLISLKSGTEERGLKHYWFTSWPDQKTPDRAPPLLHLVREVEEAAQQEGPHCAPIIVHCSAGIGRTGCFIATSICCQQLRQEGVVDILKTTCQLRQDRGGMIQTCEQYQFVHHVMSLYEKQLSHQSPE

[2] = biological target: T1, Carboxy-terminal domain RNA polymerase II polypeptide A small phosphatase 1 (Homo sapiens, UniProt Q9GZU7); assay: inhibitors of CTDSP1, concentration-response testing, biochemical assay, absorbance-based, actives from ultra-high-throughput screening (AID 540297); type: functional
T1 sequence (Q9GZU7 whole entry): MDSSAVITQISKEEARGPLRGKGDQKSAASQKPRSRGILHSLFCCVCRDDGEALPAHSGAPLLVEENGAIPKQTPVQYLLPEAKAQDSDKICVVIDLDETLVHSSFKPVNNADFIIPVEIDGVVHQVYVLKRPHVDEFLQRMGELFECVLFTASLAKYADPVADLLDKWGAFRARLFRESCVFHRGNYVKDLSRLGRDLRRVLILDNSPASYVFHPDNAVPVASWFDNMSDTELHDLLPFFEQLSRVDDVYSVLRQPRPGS

[3] = biological target: Bifunctional protein GlmU (Mycobacterium tuberculosis, UniProt P9WMN3); assay: Inhibitors of Mycobacterial Glucosamine-1-phosphate acetyl transferase (GlmU). Secondary screen.; parameters: species or system Mycobacterium tuberculosis H37Rv
Bifunctional protein GlmU, sequence (P9WMN3 whole entry): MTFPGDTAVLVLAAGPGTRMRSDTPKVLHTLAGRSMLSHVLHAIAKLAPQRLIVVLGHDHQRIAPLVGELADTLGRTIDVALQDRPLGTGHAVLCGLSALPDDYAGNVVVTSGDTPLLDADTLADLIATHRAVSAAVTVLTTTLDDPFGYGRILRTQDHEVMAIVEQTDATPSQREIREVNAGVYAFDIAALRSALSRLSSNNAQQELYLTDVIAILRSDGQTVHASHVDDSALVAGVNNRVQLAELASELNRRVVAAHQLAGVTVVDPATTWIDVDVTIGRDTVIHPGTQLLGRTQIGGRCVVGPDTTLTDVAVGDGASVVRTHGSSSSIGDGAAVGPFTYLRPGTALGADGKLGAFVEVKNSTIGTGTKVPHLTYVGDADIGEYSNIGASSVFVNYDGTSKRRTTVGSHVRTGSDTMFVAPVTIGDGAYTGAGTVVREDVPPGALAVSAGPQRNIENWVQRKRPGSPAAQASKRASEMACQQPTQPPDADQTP

[4] = biological target: T2, Tyrosine-protein phosphatase non-receptor type 22 (Homo sapiens, UniProt Q9Y2R2); assay: PTPN22 phosphatase inhibition, dose response, selectivity assay for STEP inhibitor project, biochemical (AID 624241); type: functional
T2 sequence (Q9Y2R2 whole entry): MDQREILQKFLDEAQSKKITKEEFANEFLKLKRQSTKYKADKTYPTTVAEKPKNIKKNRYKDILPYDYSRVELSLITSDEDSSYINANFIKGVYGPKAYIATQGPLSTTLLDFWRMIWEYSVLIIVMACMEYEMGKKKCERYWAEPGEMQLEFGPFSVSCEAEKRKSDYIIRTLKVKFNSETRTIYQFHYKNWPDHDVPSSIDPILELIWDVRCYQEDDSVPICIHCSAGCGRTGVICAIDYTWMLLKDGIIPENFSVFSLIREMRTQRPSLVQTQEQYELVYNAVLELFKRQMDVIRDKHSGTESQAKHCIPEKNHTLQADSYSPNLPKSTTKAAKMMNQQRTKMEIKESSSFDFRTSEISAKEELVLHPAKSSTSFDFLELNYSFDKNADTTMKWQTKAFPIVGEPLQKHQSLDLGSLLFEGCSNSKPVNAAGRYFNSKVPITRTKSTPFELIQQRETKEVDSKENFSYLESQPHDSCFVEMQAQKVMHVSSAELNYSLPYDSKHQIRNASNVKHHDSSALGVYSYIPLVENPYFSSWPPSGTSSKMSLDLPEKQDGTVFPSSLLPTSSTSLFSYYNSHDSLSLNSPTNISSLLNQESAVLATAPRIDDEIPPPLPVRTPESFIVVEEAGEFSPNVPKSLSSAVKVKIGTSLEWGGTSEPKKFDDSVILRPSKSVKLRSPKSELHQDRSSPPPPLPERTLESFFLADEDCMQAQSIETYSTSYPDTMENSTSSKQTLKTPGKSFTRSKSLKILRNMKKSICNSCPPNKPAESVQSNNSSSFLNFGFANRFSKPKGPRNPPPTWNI

[5] = biological target: Tyrosine-protein phosphatase non-receptor type 11 (Homo sapiens, UniProt Q06124); assay: SHP2 phosphatase inhibition, dose response, selectivity assay for STEP inhibitor project, biochemical (AID 602367); type: functional; conditions: read-out: IC50_Mean
Tyrosine-protein phosphatase non-receptor type 11, sequence (Q06124 whole entry): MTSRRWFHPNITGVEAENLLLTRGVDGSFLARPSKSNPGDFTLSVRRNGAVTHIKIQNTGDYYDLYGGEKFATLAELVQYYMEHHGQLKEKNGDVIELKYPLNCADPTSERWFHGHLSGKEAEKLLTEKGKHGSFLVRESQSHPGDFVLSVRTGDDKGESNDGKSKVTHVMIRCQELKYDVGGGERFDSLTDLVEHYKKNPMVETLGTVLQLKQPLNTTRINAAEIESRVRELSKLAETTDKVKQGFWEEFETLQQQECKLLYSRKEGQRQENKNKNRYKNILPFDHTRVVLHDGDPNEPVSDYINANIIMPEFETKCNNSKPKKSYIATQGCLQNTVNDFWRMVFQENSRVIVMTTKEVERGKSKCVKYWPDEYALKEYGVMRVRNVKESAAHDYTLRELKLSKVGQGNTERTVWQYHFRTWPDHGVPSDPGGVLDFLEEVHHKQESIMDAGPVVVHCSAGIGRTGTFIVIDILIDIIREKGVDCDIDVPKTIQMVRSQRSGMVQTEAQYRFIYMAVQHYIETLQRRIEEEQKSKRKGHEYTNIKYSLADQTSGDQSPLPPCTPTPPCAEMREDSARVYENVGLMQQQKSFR

[6] = biological target: Dual specificity protein phosphatase 3 (Homo sapiens, UniProt P51452); assay: VHR phosphatase inhibition, dose response, selectivity assay for STEP inhibitor project, biochemical (AID 602374); type: functional; conditions: read-out: IC50_Mean
Dual specificity protein phosphatase 3, sequence (P51452 whole entry): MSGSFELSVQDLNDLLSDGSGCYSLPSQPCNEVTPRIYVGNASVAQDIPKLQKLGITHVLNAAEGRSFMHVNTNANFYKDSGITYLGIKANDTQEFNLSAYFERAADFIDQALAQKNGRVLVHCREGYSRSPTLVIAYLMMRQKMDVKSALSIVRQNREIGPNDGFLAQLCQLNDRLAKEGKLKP

[7] = biological target: Glutathione-S-transferase (Schistosoma japonicum, UniProt Q26513); assay: biotin-GST/anti-GST TR-FRET signal inhibitors, dose response, artefact control for Vif-APOBEC3G degradation inhibitor project, biochemical (AID 1117362); type: functional
Glutathione-S-transferase, sequence (Q26513 whole entry): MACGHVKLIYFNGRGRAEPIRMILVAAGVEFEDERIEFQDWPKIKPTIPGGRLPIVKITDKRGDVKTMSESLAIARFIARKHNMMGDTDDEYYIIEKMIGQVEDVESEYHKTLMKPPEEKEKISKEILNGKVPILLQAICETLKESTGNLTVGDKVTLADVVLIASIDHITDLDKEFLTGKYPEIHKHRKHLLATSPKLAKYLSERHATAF

[8] = THP-1 cell cytotoxicity, dose response, cytotoxicity control for Vif-APOBEC3G degradation inhibitor project, THP-1 cells (AID 1117359); type: functional; conditions: Human immunodeficiency virus 1, THP-1
[9] = cytotoxicity in HEK-293T cells, dose response, cytotoxicity control for TCR NF-kB inhibitor project, luminescence, T-cell screen hits (AID 489026); type: functional, cell-based;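 further: cells exposed to compound about 14 hours before the viability readout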
[10] = cytotoxicity toward DRD oncogenic fibroblasts, dose response, cell-based, non-viral oncogenic, luminescence (AID 1934); type: functional; conditions: Homo sapiens
BJ [11] = assay: cytotoxicity toward BJ-TERT fibroblasts, dose response, cell-based, RAS-independent, luminescence (AID 1933); type: functional; conditions: Homo sapiens
BJ [12] = assay: cells; type: functional, cell-based; conditions: Homo sapiens
[13] = biological target: RNA-editing ligase 1, mitochondrial (Trypanosoma brucei brucei, UniProt P86926); assay: TbREL1 ligase inhibitors, dose response, biochemical, fluorescence, Trypanosoma brucei (AID 1117295); type: functional
RNA-editing ligase 1, mitochondrial, sequence (P86926 whole entry): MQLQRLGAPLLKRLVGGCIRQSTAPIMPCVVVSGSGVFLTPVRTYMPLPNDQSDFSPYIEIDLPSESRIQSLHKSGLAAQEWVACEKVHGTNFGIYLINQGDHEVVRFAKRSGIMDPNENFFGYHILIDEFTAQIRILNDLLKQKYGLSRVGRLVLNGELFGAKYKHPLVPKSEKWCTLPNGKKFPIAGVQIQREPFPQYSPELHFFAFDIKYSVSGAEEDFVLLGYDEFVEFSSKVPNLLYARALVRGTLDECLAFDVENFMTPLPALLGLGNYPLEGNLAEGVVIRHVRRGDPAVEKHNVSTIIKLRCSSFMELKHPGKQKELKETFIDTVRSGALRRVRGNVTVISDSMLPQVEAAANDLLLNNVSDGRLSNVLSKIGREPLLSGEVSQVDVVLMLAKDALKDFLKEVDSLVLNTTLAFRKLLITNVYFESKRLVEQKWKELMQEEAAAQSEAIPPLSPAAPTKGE

BJ [14] = assay: cytotoxicity toward BJ-TERT-LT-ST fibroblasts, dose response, cell-based, RAS-independent, luminescence (AID 1935); type: functional; conditions: Homo sapiens;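 further: BJ fibroblasts immortalized with TERT plus LT and ST oncogenes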
[15] = biological target: E3 ubiquitin-protein ligase Mdm2 (Homo sapiens, UniProt Q00987); assay: enhancers of MDM2-luciferase reporter signal, concentration-effect titration, project on inhibitors of MDM2 ubiquitin ligase, cellular assay, luminescent readout, 384-well plate format (AID 1394); type: functional;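 further: MDM2 E3 inhibitors raise luminescence so EC50 is for signal enhancement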
E3 ubiquitin-protein ligase Mdm2, sequence (Q00987 whole entry): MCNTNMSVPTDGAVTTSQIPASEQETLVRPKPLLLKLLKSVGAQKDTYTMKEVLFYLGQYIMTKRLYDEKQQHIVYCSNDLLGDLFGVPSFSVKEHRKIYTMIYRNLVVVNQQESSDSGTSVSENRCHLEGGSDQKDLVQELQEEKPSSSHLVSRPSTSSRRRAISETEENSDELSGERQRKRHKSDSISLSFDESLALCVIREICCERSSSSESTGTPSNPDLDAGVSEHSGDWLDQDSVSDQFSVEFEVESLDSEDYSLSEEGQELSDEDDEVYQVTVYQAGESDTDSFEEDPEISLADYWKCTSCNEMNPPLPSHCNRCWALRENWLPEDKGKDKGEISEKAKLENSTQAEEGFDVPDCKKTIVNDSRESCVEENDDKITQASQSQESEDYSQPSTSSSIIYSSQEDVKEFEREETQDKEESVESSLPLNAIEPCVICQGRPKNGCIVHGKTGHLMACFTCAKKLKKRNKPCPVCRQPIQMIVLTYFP

[16] = NIH-3T3 fibroblast cytotoxicity, dose response, cytotoxicity control, cell-based, fluorescence, Alamar Blue, secondary assay (AID 2327); type: functional;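 further: NIH-3T3 mouse fibroblasts cultured with fluconazole at 8 µg/mL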
[17] = biological target: ATP-dependent molecular chaperone HSP82 (Candida albicans (strain WO-1) (Yeast), UniProt C4YTQ8); assay: loss of DOC-induced GRE-beta-galactosidase reporter signal, dose response, Hsp90 inhibitor project, S. cerevisiae, luminescence (AID 2400); type: functional, cell-based;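 further: beta-galactosidase luminescence from glucocorticoid response element reporter as proxy for Hsp90 function; inhibitor potency where signal loss means Hsp90 inhibition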
Galanin receptor type 3 = Galanin receptor type 3 (Homo sapiens, UniProt O60755); assay: Fluorescence-based cell-based primary high throughput dose response assay to identify antagonists of the Galanin Receptor 3 (GalR3).; type: functional
Galanin receptor type 3, sequence (O60755 whole entry): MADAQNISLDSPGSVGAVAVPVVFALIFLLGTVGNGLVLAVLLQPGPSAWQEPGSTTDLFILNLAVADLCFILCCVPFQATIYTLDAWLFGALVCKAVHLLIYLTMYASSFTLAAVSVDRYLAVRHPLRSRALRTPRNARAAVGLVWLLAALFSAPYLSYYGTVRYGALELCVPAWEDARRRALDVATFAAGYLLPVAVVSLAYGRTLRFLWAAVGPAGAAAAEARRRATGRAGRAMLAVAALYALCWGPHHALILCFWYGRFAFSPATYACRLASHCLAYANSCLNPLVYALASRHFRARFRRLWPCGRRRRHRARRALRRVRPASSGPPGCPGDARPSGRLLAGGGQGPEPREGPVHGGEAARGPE

[18] = biological target: COUP transcription factor 2 (Homo sapiens, UniProt P24468); assay: Luminescence-based cell-based high throughput dose response assay to identify inhibitors of COUP-TFII (NR2F2).; type: functional;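 further: HEK293 cells transiently cotransfected with COUP-TFII expression vector and reporter; luciferase reporter luminescence driven by COUP-TFII from the pX2-168 reporter plasmid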
COUP transcription factor 2, sequence (P24468 whole entry): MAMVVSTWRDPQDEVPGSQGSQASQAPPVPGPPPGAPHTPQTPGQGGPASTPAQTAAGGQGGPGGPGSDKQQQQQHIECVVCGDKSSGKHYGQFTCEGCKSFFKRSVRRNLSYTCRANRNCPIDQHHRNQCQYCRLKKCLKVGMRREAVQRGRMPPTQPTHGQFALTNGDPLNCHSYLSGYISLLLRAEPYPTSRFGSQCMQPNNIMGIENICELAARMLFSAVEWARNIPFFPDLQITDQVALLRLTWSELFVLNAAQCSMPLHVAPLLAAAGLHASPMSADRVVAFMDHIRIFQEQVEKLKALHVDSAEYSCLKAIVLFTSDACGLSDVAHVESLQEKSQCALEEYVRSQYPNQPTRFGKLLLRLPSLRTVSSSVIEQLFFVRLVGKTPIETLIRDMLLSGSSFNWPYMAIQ

[19] = control 3'UTR Renilla luciferase suppression, dose response, counter-screen for Shn3 inhibitor project, cell-based, Clone20-Shn3RL, cherry-picked (AID 624133); type: functional
INS1 = assay: beta cell apoptosis inhibitors, cytokine rescue, dose response, luminescence, retest (AID 449756); type: functional, cell-based; conditions: Rattus norvegicus, INS1;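 further: cell death triggered by IL-1 beta plus TNF-alpha plus IFN-gamma mixture; protective hits raise ATP signal compared with cytokine alone wells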
[20] = HepG2 cell cytotoxicity, dose response, cytotoxicity control for Shn3 inhibitor project, CellTiter-Glo, cherry-picked (AID 624134); type: functional, cell-based
[21] = C. albicans growth with fluconazole, confirmation, fluorescence, retest (AID 2467); type: functional, cell-based
cells = type: functional, cell-based; conditions: HEK-CNG
[22] = Shn3 3'UTR reporter inhibitors, dose response, cell-based, Clone20 osteoblasts, firefly luciferase, cherry-picked (AID 624132); type: functional;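 further: firefly luciferase luminescence from reporter carrying the Shn3 3'UTR in osteoblasts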
[23] = biological target: T3, Serine/threonine-protein phosphatase (Candida dubliniensis (strain CD36 / CBS 7987 / NCPF 3949 / NRRLY-17841) (Yeast), UniProt B9W6M3); assay: calcineurin pathway inhibitors in yeast reporter, dose response, S. cerevisiae, CDRE-lacZ, luminescence, secondary (AID 2388); type: functional, cell-based;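 further: yeast reporter cells carrying a calcineurin-responsive lacZ construct stimulated with calcium chloride; luminescent beta-galactosidase reporter signal in whole cells rather than isolated phosphatase activity; potency for inhibition where a drop in reporter signal means calcineurin blockade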
T3 sequence (B9W6M3 whole entry): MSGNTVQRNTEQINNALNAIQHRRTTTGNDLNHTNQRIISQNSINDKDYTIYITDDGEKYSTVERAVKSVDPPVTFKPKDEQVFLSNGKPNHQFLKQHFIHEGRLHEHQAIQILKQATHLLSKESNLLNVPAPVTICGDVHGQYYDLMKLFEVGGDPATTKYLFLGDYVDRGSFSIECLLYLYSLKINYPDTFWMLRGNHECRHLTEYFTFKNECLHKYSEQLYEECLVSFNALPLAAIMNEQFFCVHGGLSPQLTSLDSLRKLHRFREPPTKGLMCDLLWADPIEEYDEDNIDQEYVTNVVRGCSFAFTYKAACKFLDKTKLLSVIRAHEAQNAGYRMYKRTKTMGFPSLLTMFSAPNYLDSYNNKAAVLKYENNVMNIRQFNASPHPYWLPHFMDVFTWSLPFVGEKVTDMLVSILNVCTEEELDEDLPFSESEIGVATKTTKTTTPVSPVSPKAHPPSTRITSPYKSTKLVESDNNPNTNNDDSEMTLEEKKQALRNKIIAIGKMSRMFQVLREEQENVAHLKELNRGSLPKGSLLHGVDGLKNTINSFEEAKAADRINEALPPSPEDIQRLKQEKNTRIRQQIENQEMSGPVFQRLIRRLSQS

[24] = biological target: Mitogen-activated protein kinase 10 (Homo sapiens, UniProt P53779); assay: Dose response biochemical screening assay for inhibitors of c-Jun N-Terminal Kinase 3 (JNK3). [Related pubchem assays: 746 ]
Mitogen-activated protein kinase 10, sequence (P53779 whole entry): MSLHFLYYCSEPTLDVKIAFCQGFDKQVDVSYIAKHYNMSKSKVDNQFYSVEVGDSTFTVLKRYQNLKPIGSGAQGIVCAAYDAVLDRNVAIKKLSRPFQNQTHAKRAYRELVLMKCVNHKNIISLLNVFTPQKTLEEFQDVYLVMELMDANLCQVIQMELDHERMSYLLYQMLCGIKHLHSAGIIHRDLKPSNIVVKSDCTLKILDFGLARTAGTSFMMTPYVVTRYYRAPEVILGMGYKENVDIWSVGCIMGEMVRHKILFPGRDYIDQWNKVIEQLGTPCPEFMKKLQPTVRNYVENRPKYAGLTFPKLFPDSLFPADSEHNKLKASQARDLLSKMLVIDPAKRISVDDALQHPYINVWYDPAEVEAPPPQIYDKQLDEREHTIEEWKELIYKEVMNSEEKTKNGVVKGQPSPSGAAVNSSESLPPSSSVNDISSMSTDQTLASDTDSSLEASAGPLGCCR

[25] = HepG2 cell cytotoxicity, dose response, cytotoxicity control, ATP luminescence, dry powder, Set4 (AID 743143); type: functional, cell-based
[26] = A549 cell cytotoxicity, dose response, cytotoxicity control, CellTiter-Glo luminescence, dry powder, set 3 (AID 743146); type: functional, cell-based

Protein Tat, sequence (P04608 whole entry): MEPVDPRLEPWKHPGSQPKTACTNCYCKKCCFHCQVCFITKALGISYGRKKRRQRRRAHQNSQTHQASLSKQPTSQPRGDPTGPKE

## Cc1c(C)n(C(=O)CSc2nc3ccccc3[nH]2)c2ccccc12
Protein Tat
  IC50: > 100 µM (active)
[1]
  IC50: 9.91 µM (active)
[2]
  IC50: 3.37 µM (active)
[3]
  IC50: 38.2 µM (active)
[4]
  IC50: 8.33 µM (active)
[5]
  IC50: 0.603 µM (active)
[6]
  IC50: 1.81 µM (active)

## O=C(COC(=O)c1ccccc1OC(F)F)Nc1ccc2[nH]c(O)nc2c1
[7]
  IC50: > 100 µM (active)
[8]
  CC50: > 40 µM (active)

## CC1(C)CC(N2CCN(C(c3ccccc3)c3ccccc3)CC2)=CC(=[N+]2CCCCC2)C1
[9]
  IC50: > 80 µM (inactive)
[10]
  EC50: 3.82 µM (active)
BJ [11]
  EC50: 2.36 µM (active)
BJ [12]
  EC50: 3.77 µM (active)
[13]
  IC50: > 96.6 µM (inactive)
BJ [14]
  EC50: 3.51 µM (inconclusive)

## COc1ccc(-c2nsc(SCC(=O)Nc3ccc4c(c3)OCO4)n2)cc1
[15]
  EC50: 0.19 µM (not active)

## CC(Nc1ncnc2ccccc12)c1ccccc1 (stereo unspecified)
[9]
  IC50: > 80 µM (inactive)
[16]
  EC50: > 160 µM (inactive)
[17]
  EC50: > 160 µM (inactive)
Galanin receptor type 3
  IC50: 0.128 µM (active)
[18]
  IC50: 2.41 µM (active)
[19]
  AC50: 1.14 µM (active)
INS1
  AC50: 1.98 µM (active)
[20]
  AC50: 1.21 µM (active)
[21]
  EC50: 0.404 µM (active)
cells
  EC50: > 29.9 µM (inactive)
[22]
  AC50: 0.355 µM (active)
[23]
  EC50: > 180 µM (inactive)

## COc1cccc(C2=NOC(C(=O)Nc3cc(OC)c(OC)c(OC)c3)C2)c1 (stereo unspecified)
[24]
  IC50: 2.02 µM (active)

## COc1cc(C(=O)NCCC(=O)NC2CCCc3ccccc32)cc(OC)c1OC (stereo unspecified)
[25]
  AC50: 21.7 µM (active)
[26]
  AC50: 26.7 µM (active)
